# Data as given in PubChem BioAssay (NCI).
# Several values for one entry are separate records, joined by “and”; a condition that tells them apart may be missing. Equal values may be shown once.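 The compound was tested at five concentrations on cells cultured in 96-well plates, with a 48-hour exposure period. GI50: concentration for 50% inhibition of growth. TGI marks complete inhibition of growth.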
# What was measured:
# Assay in all cases: growth of human tumour cells (NCI), 48 h
# HOP-62 NSCLC = tested on: HOP-62 NSCLC
# M14 melanoma = tested on: M14 melanoma
# K-562 leukemia = tested on: K-562 leukemia
# NCI-H23 lung = tested on: NCI-H23 lung
# OVCAR-8 ovarian = tested on: OVCAR-8 ovarian
# HCT-116 colon = tested on: HCT-116 colon
# MDA-MB-435 = tested on: MDA-MB-435
# SF-295 CNS = tested on: SF-295 CNS
# RXF 393 renal = tested on: RXF 393 renal
# MDA-N = tested on: MDA-N
# HCC-2998 colon = tested on: HCC-2998 colon
SMILES,TGI (HOP-62 NSCLC) [µM],TGI (M14 melanoma) [µM],TGI (K-562 leukemia) [µM],TGI (NCI-H23 lung),TGI (OVCAR-8 ovarian),TGI (HCT-116 colon),TGI (MDA-MB-435),TGI (SF-295 CNS),TGI (RXF 393 renal),TGI (MDA-N) [µM],TGI (HCC-2998 colon),GI50 (HOP-62 NSCLC),GI50 (K-562 leukemia),GI50 (OVCAR-8 ovarian),GI50 (HCT-116 colon),GI50 (MDA-MB-435),GI50 (MDA-N) [µM],GI50 (HCC-2998 colon)
Nc1nc(=O)n(C2CC(O)C(CO)O2)c2nc(-c3ccc(-c4ccccc4)cc3)cnc12 (stereo not given),82.9,> 100,> 100,> 100 µM,> 100 µM,> 100 µM,> 100 µM,> 100 µM,> 100 µM,> 100,> 100 µM,,,,,,,
COC(=O)C1=C(C(=O)OC)C2CCC1CC2=O (stereo not given),> 100,> 100,> 100,> 100 µM,> 100 µM,> 100 µM,> 100 µM,> 100 µM,> 100 µM,> 100,> 100 µM,,,,,,,
Cc1cn(C2CC(/[N+]([O-])=N\Nc3ccc([N+](=O)[O-])cc3)C(CO)O2)c(=O)[nH]c1=O (stereo not given),> 100,> 100,> 100,> 100 µM,> 100 µM,> 100 µM,> 100 µM,> 100 µM,> 100 µM,> 100,> 100 µM,,,,,,,
Cc1c(OCc2cccc3ccccc23)ccc2c(=O)cc(S)oc12,> 100,> 100,> 100,80.7 µM,> 100 µM,77.5 µM,98.6 µM,88.7 µM,> 100 µM,> 100,> 100 µM,,,,,,,
CC(C)N=C(NC#N)NS(=O)(=O)c1cnccc1NC1CCCCCCC1,> 100,> 100,> 100,> 100 µM,> 100 µM,> 100 µM,> 100 µM,> 100 µM,> 100 µM,> 100,> 100 µM,,,,,,,
O=c1ccc2c(Cl)sc(Cl)c2[nH]1,> 100,> 100,> 100,> 100 µM,> 100 µM,> 100 µM,> 100 µM,> 100 µM,> 100 µM,> 100,> 100 µM,,,,,,,
COc1ccc2oc(=O)c(-c3nc4ccccc4s3)cc2c1,> 48.1,> 58.3,> 100,> 63.9 µM,36.9 µM,37.6 µM,> 47.1 µM,> 57.3 µM,31 µM,> 67.2,> 100 µM,,,,,,,
COC(=O)/C=C/[C@H]1[C@H](C)N1S(=O)(=O)c1ccc(C)cc1 (stereo not given in full),> 100,> 100,> 100,> 100 µM,> 100 µM,> 100 µM,> 100 µM,> 100 µM,> 100 µM,> 100,> 100 µM,,,,,,,
N#C[C@H](c1nc2ccccc2[nH]1)c1nc2ccccc2nc1Cl,> 31.1,> 50.3,> 100,> 54.3 µM,> 100 µM,24.2 µM,> 78 µM,> 100 µM,> 100 µM,> 62.9,> 60.9 µM,,,,,,,
COc1ccc(-c2nc3ccccc3c(=O)[nH]2)cc1OC,> 100,> 100,> 100,> 100 µM,67.5 µM,> 100 µM,> 100 µM,> 100 µM,68.1 µM,> 100,> 100 µM,,,,,,,
[B]C(=O)NC(CC(C)C)C(=O)NC1c2ccsc2C(=O)C1O (stereo not given) (tested in a mixture with another compound),> 100,> 100,> 100,> 100 µM,> 100 µM,> 100 µM,> 100 µM,> 100 µM,> 100 µM,> 100,> 100 µM,,,,,,,
O=C1CN2CCN(CC2)CC(=O)Nc2ccc(cc2)S(=O)(=O)c2ccc(cc2)NC(=O)CN2CCN(CC2)CC(=O)Nc2ccc(cc2)S(=O)(=O)c2ccc(cc2)N1,> 93.6,> 78.6,> 100,> 90.4 µM,> 100 µM,71.9 µM,> 89.7 µM,> 100 µM,> 100 µM,> 100,> 100 µM,,,,,,,
c1ccc2c(CCNC3=NCCO3)cccc2c1,> 10,> 10,> 10,> 10 µM,> 10 µM,> 10 µM,> 10 µM,> 10 µM,> 10 µM,> 10,> 10 µM,,,,,,,
CC(C)(C)OC(=O)/C=C/[C@@H](CCC(=O)/C=C/[C@H](/C=C\CCCC(=O)O)NC1(c2ccccc2)c2ccccc2-c2ccccc21)O[Si](C)(C)C(C)(C)C,36.5,29.4,> 100,36.6 µM,55 µM,30.2 µM,48.7 µM,33.5 µM,24.5 µM,47.2,32.5 µM,,,,,,,
COc1ccc(OC/C(N=Cc2cccnc2)=N/NC(=O)c2ccncc2)cc1,> 100,> 100,> 100,> 100 µM,> 100 µM,> 100 µM,82.1 µM,> 100 µM,> 100 µM,45.6,> 100 µM,,,,,,,
COc1ccc([C@H]2C=C(c3cc(F)c(Cl)cc3Cl)N=c3s/c(=C\c4ccc(-c5ccc(Cl)cc5Cl)o4)c(=O)n32)cc1,45.3,> 100,> 100,> 100 µM,> 100 µM,> 100 µM,> 100 µM,> 100 µM,> 100 µM,> 100,47.8 µM,,,,,,,
COC(=O)/C=C/c1cc(OC)c2c(c1)C(C(=O)OC)C(c1ccc(O)c(OC)c1)O2 (stereo not given),> 100,> 100,> 50.3,> 100 µM and 13 µM and 56.5 µM,> 100 µM and > 72.2 µM and 21.6 µM,> 100 µM and > 46.7 µM and 19.7 µM,4.49 µM and 1.32 µM,11.8 µM and 12.6 µM and 10 µM,9.76 µM and 7.8 µM and > 43.6 µM,29.1,48.4 µM and 25.6 µM and 21 µM,12 µM and 5.12 µM and 7.2 µM,1.51 µM and 1.11 µM and 0.579 µM,10.8 µM and 4.76 µM and 2.32 µM,4.22 µM and 3.67 µM and 1.1 µM,1.13 µM and 0.259 µM,0.204,24.5 µM and 10.6 µM and 5.69 µM
c1ccc2c[n+](Cc3ccnc4ccccc34)ccc2c1,> 100,> 100,> 100,> 100 µM,> 100 µM,> 100 µM,> 100 µM,> 100 µM,> 100 µM,> 100,> 100 µM,,,,,,,
